Key:
[1] = tested on: HIV-1 promoter; assay: Dual luciferase assay, HIV-1 molecular clone pNL4-3-LucE- and derived constructs in 293T cells; assay type: cell-based; details: for inhibition of expression from construct VI: 3′-LTR replaced by SV40 poly(A) signal; for dose dependence of repression of expression from pNL4-3-LucE- / repression of luciferase expression (FF:Ren) from pNL4-3-LucE-: 12 hr post-transfection; for repression of luciferase expression (FF:Ren) from pNL4-3-LucE-: CPX 30 μM, DEF 250 μM, P2 30 μM; for inhibition of FF expression from construct V: all open reading frames deleted except luciferase; for inhibition of FF expression from constructs III and IV: within 12 hr, Tat-deficient constructs complemented with Tat vector
Protocol: Plasmids were introduced into 2×10^5 293T cells by transfection using Lipofectamine 2000 (Invitrogen) according to the manufacturer's instructions. Compounds (such as CPX or DEF) were added simultaneously. Cells were harvested at 12 hr post-transfection, washed with PBS, lysed in 0.15 ml of 1× passive lysis buffer (Promega), and assayed for luciferase activity using the Promega dual luciferase reporter system according to the manufacturer's instructions. Jurkat cells (1×10^6 cells) were transfected using FuGENE 6 (Roche) according to the manufacturer's instructions and assayed in a similar fashion after pelleting.
(§1) 293T cells (10^5 cells/well of 12-well microplates) were seeded and transfected 20 hr later with a firefly luciferase (Luc)-expressing reporter plasmid and corresponding Renilla luciferase (Ren)-expressing reference plasmid using TransFectin™ (Bio-Rad, Hercules, Calif.). The bioavailable intracellular iron concentration was monitored using plasmids obtained from B. Galy and M. W. Hentze (EMBL, Heidelberg). Plasmid pcFIF-Luc contains the mouse ferritin H 5′-UTR with an iron response element (IRE) controlling Luc; pcFIRo-Ren is a similar construct expressing a mutated non-functional IRE fused to Ren. The activity of the HIV-1 promoter was monitored using the pNL4-3-Luc E molecular clone (Chen et al. (1994) J Virol 68: 654-660.), based on the recombinant infectious proviral clone that contains DNA from HIV isolates NY5 (5′ half) and IIIB (3′ half). This plasmid, obtained from D. Baltimore (Caltech, Pasadena), contains the Luc gene in place of 102 nucleotides from nef and 6 nucleotides from env. pCMV-Ren (Promega, Madison, Wis.) was used as reference for pNL4-3-Luc E. Compounds were added at the time of transfection. Cells were harvested 12 hr later, washed with phosphate-buffered saline, and lysed for the dual luciferase assay (Dual Luciferase™ Reporter Assay System; Promega, Madison, Wis.). Luc data were normalized to the Ren internal controls (Hogue et al. (2009) Retrovirology 6: 90.).
293T cells were selected as a model system to explore the relationship between the drugs, eIF5A and HIV gene expression. These cells efficiently transcribe HIV-1 genes from molecular clones as well as subviral constructs, allowing for early detection of changes in HIV gene expression. To establish the system, assays were carried out to examine the effect of CPX and DEF on the expression of firefly luciferase (FF) from the HIV-1 molecular clone, pNL4-3-LucE-, engineered to carry the FF gene in place of the viral nef gene. The molecular clone was transfected into 293T cells together with the pCMV-Ren vector that expresses Renilla luciferase (Ren) from the cytomegalovirus (CMV) immediate early promoter as a control for transfection efficiency and non-specific effects of the compounds. Dual luciferase assays were conducted at 12 hr post-transfection and results are expressed as relative luciferase activity (FF:Ren). […] Assays therefore were carried out to characterize the action of CPX and DEF on eIF5A and HIV gene expression in 293T cells during the first 12 to 24 hr of drug treatment.

[2] = molecular target: T1, eIF5A:DOHH complex (Homo sapiens, UniProt Q9BU89); assay: Co-immunoprecipitation of eIF5A with DOHH from 293T cell extracts; assay type: cell-based; details: for interaction between endogenous eIF5A and tagged DOHH: 293T transfected with FLAG-DOHH; for association of endogenous DOHH with FLAG-eIF5A: CPX 30 μM, P2 30 μM, DEF 250 μM, DFOX 10 μM, GC7 10 μM, 24 hr
T1 construct: Endogenous DOHH co-immunoprecipitated with FLAG-eIF5A; expressed in transfected cells; host or cells: 293T cells (DOHH endogenous, FLAG-eIF5A transfected)
T1 sequence (Q9BU89 1-302): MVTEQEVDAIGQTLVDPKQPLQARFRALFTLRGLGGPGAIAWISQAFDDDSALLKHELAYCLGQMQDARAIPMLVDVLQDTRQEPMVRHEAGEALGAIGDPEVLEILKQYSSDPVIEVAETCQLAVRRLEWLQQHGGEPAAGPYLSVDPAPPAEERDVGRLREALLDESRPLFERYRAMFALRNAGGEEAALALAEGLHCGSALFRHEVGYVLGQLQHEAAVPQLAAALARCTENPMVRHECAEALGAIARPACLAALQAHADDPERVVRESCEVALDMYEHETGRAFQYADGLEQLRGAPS
Protocol: Immunoprecipitation and immunoblotting experiments were carried out as described previously in Hoque et al. Mol Cell Biol 2003, 23:1688-1702.
eIF5A forms tight complexes with its modifying enzymes. Unmodified eIF5A (lysine-50) immunoprecipitates with DHS and deoxyhypusyl-eIF5A interacts with DOHH in vitro. It was discovered that the deoxyhypusyl-eIF5A:DOHH complex formed in vivo can be detected by immunoprecipitation from cell extracts. Taking advantage of this finding, the effects of the drugs on the enzyme-substrate interaction were tested. FLAG-eIF5A was expressed in 293T cells and complexes that immunoprecipitated with anti-FLAG antibody were immunoblotted and probed with antibodies against DOHH. […] As a further control, the DHS inhibitor GC7 was included in this assay. […] As expected, none of the compounds affected the immunoprecipitation of FLAG-eIF5A (FIG. 2D, middle panel) or the expression of endogenous eIF5A (FIG. 2D, bottom panel). Reciprocally, the interaction between endogenous eIF5A and tagged DOHH was inhibited by CPX and DEF (FIG. 2E, right). Similarly, the interaction of endogenous eIF5A with tagged DHS was inhibited by GC7 (FIG. 2E, left) but resistant to CPX and DEF. It is concluded that CPX and DEF, but not P2 or DFOX, target DOHH and inhibit its interaction with its substrate, deoxyhypusylelF5A.

[3] = tested on: bioavailable intracellular iron; assay: IRE-controlled luciferase reporter in 293T cells; assay type: cell-based, human; details: 12 hr
Protocol: as §1
Both CPX and DEF are hydroxypyridinones with vicinally positioned oxygen atoms that mediate bidentate interaction with metal ions, in particular Fe^3+ (FIG. 11A). To evaluate the effect of drugs on the intracellular iron pool and on HIV-1 gene expression, transient expression assays in human 293T cells were exploited. Bioavailable intracellular iron was measured using a construct in which an iron-responsive element (IRE) controls luciferase expression, and HIV-specific transcription was assayed in parallel using an HIV-1 molecular clone that expresses luciferase reporter under the direction of the retroviral promoter. CPX and DEF were compared with the medicinal chelator deferoxamine (DFOX) and with the CPX fragment Agent P2, which consists of the metal-binding 1,2-HOPO domain of CPX but lacks the cyclohexyl moiety (FIG. 11A).

| Compound | inhibition of expression from construct VI [1] [%] | dose dependence of repression of expression from pNL4-3-LucE- [1] | repression of luciferase expression (FF:Ren) from pNL4-3-LucE- ([1]; DFOX 15 μM) | inhibition of FF expression from construct V [1] [%] | inhibition of FF expression from constructs III and IV [1] [%] | interaction between endogenous eIF5A and tagged DOHH [2] | association of endogenous DOHH with FLAG-eIF5A [2] | reduction of intracellular iron (IRE-dependent luciferase) [3] [%] | decrease of HIV-encoded luciferase expression ([1]; run parallel to IRE reporter (FIG. 11B), DFOX 15 μM) | reduction of intracellular iron (IRE-dependent luciferase) ([3]; DFOX 15 μM) |
| --- | --- | --- | --- | --- | --- | --- | --- | --- | --- | --- |
| Cc1c(O)c(=O)ccn1C [DEF, 3-hydroxy-1,2-dimethylpyridin-4(1H)-one] | ~50 | repressed expression from the HIV-1 molecular clone in a dose dependent fashion | ~50% | ~50 | ~50 | inhibited | largely prevented | ~60 |  |  |
| Cc1ccn(O)c(=O)c1 [Agent P2, 1-hydroxy-4-methylpyridin-2[1H]-one] |  |  | ineffective |  |  |  | neither P2 or DFOX prevented the formation of the eIF5A:DOHH complex |  | no effect on either IRE-dependent or HIV-encoded luciferase expression | no effect on either IRE-dependent or HIV-encoded luciferase expression |
| Cc1cc(C2CCCCC2)n(O)c(=O)c1 [CPX, 6-cyclohexyl-1-hydroxy-4-methylpyridin-2[1H]-one] | ~50 | repressed expression from the HIV-1 molecular clone in a dose dependent fashion | ~50% | ~50 | ~50 | inhibited | largely prevented | 80 |  |  |

Reference: US20120225093A1, “Abrogating HIV-1 Infection via Drug-Induced Reactivation of Apoptosis” (UNIVERSITY OF MEDICINE AND DENTISTRY OF NEW JERSEY, priority 2010, published 2012)
